Test results published in PubChem BioAssay AID330 (DTP/NCI, 2004).
“And” between values parts separate entries of the source, which are not always exact repeats. Identical values can stand only once. Inconclusive results and toxic doses are left out. The calls were made as follows: active = survival T/C of 150% or more; inactive = T/C below 125% in these data.

Test system: P388 leukemia ip, CD2F1 mice, survival T/C
Assay: NCI In Vivo Anticancer Drug Screen. Data for tumor model P388 Leukemia (intraperitoneal) in CD2F1 (CDF1) mice
Conditions: endpoint: median survival time, higher = longer survival
Method in brief: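 Mice carrying the transplanted tumor received test compound or vehicle. Survival was recorded in each group, and the value is the treated-group measurement divided by that of the vehicle-treated control group.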

[1] = dose: 50.0 mg/kg/injection, schedule: Q01DX005 (ip), vehicle: saline with Tween-80
[2] = dose: 100.0 mg/kg/injection, schedule: Q01DX005 (ip), vehicle: saline with Tween-80
[3] = dose: 200.0 mg/kg/injection, schedule: Q01DX005 (ip), vehicle: saline with Tween-80
[4] = dose: 100.0 mg/kg/injection, schedule: Q01DX001 (ip), vehicle: Klucel (hydroxypropylcellulose) (HPC)

Measured: T/C

C=C1C[C@@H](O)C[C@@]2(C)C[C@@H]3OC(=O)C(=C)[C@@H]3C[C@H]12
inactive: dose: 12.5 mg/kg/injection, schedule: Q01DX009 (ip), vehicle: Klucel (hydroxypropylcellulose) (HPC) 99 % of control | dose: 25.0 mg/kg/injection, schedule: Q01DX009 (ip), vehicle: Klucel (hydroxypropylcellulose) (HPC) 111 % of control | dose: 50.0 mg/kg/injection, schedule: Q01DX009 (ip), vehicle: Klucel (hydroxypropylcellulose) (HPC) 114 % of control | dose: 100.0 mg/kg/injection, schedule: Q01DX009 (ip), vehicle: Klucel (hydroxypropylcellulose) (HPC) 114 % of control

CCCN=Cc1cc(Cc2ccc(O)c(C=NCCC)c2)ccc1O
inactive: dose: 50.0 mg/kg/injection, schedule: Q04DX003 (ip), vehicle: Klucel (hydroxypropylcellulose) (HPC) 123 % of control | dose: 100.0 mg/kg/injection, schedule: Q04DX003 (ip), vehicle: Klucel (hydroxypropylcellulose) (HPC) 104 % of control and 119 % of control

COc1nc(Nc2ccccc2SC)nc(OC)n1
inactive: [1] 104 % of control | [2] 106 % of control | [3] 107 % of control

CC(C)CC1C(=O)N2CCCC2C2(O)OC(NC(=O)C3C=C4c5cccc6[nH]cc(c56)CC4N(C)C3)(C(C)C)C(=O)N12 (stereo unspecified)
inactive: dose: 2.5 mg/kg/injection, schedule: Q01DX009 (ip), vehicle: Klucel (hydroxypropylcellulose) (HPC) 91 % of control | dose: 5.0 mg/kg/injection, schedule: Q01DX009 (ip), vehicle: Klucel (hydroxypropylcellulose) (HPC) 90 % of control | dose: 20.0 mg/kg/injection, schedule: Q01DX009 (ip), vehicle: Klucel (hydroxypropylcellulose) (HPC) 99 % of control | dose: 40.0 mg/kg/injection, schedule: Q01DX009 (ip), vehicle: Klucel (hydroxypropylcellulose) (HPC) 101 % of control

CSC(=S)n1nc(C)c(N=Nc2ccccc2[N+](=O)[O-])c1C
inactive: [4] 111 % of control | dose: 200.0 mg/kg/injection, schedule: Q01DX001 (ip), vehicle: Klucel (hydroxypropylcellulose) (HPC) 96 % of control | dose: 400.0 mg/kg/injection, schedule: Q01DX001 (ip), vehicle: Klucel (hydroxypropylcellulose) (HPC) 106 % of control

c1cncc(-c2n[nH]c3c2CCc2ccccc2-3)c1
inactive: dose: 12.5 mg/kg/injection, schedule: Q01DX009 (ip), vehicle: other 121 % of control | dose: 37.5 mg/kg/injection, schedule: Q01DX009 (ip), vehicle: other 86 % of control | dose: 50.0 mg/kg/injection, schedule: Q01DX009 (ip), vehicle: other 121 % of control | dose: 75.0 mg/kg/injection, schedule: Q01DX009 (ip), vehicle: other 113 % of control | dose: 100.0 mg/kg/injection, schedule: Q01DX009 (ip), vehicle: other 111 % of control | dose: 150.0 mg/kg/injection, schedule: Q01DX009 (ip), vehicle: other 100 % of control | dose: 200.0 mg/kg/injection, schedule: Q01DX009 (ip), vehicle: other 101 % of control | dose: 300.0 mg/kg/injection, schedule: Q01DX009 (ip), vehicle: other 104 % of control

Cc1ccccc1NC(=O)CCC(=O)NS(C)(=O)=O
inactive: dose: 100.0 mg/kg/injection, schedule: Q01DX001 (ip), vehicle: saline with Tween-80 102 % of control | dose: 200.0 mg/kg/injection, schedule: Q01DX001 (ip), vehicle: saline with Tween-80 95 % of control | dose: 400.0 mg/kg/injection, schedule: Q01DX001 (ip), vehicle: saline with Tween-80 95 % of control

NC(=S)N1CCCC1
inactive: dose: 25.0 mg/kg/injection, schedule: Q01DX009 (ip), vehicle: saline with Tween-80 95 % of control | dose: 50.0 mg/kg/injection, schedule: Q01DX009 (ip), vehicle: saline with Tween-80 93 % of control | dose: 100.0 mg/kg/injection, schedule: Q01DX009 (ip), vehicle: saline with Tween-80 98 % of control | dose: 200.0 mg/kg/injection, schedule: Q01DX009 (ip), vehicle: saline with Tween-80 89 % of control

CCCCOB(CI)OCCCC
inactive: dose: 6.25 mg/kg/injection, schedule: Q04DX003 (ip), vehicle: saline 110 % of control | dose: 12.5 mg/kg/injection, schedule: Q04DX003 (ip), vehicle: saline 100 % of control | dose: 25.0 mg/kg/injection, schedule: Q04DX003 (ip), vehicle: saline 110 % of control

O=[N+]([O-])O.[Mn].c1ccc(/C2=c3\cc/c([n-]3)=C(\c3ccccc3)c3ccc([n-]3)/C(c3ccccc3)=c3/cc/c([n-]3)=C(\c3ccccc3)c3ccc2[n-]3)cc1
inactive: dose: 25.0 mg/kg/injection, schedule: Q04DX002 (ip), vehicle: saline with Tween-80 100 % of control | dose: 50.0 mg/kg/injection, schedule: Q04DX002 (ip), vehicle: saline with Tween-80 94 % of control | dose: 100.0 mg/kg/injection, schedule: Q04DX002 (ip), vehicle: Klucel (hydroxypropylcellulose) (HPC) 108 % of control | dose: 100.0 mg/kg/injection, schedule: Q04DX002 (ip), vehicle: saline with Tween-80 94 % of control | dose: 400.0 mg/kg/injection, schedule: Q04DX002 (ip), vehicle: Klucel (hydroxypropylcellulose) (HPC) 108 % of control

COc1ccc(CC2=CC(=O)C(=O)C=C2C)cc1
inactive: dose: 2.5 mg/kg/injection, schedule: Q01DX009 (ip), vehicle: saline + alcohol 101 % of control | dose: 5.0 mg/kg/injection, schedule: Q01DX009 (ip), vehicle: saline + alcohol 100 % of control | dose: 10.0 mg/kg/injection, schedule: Q01DX009 (ip), vehicle: saline + alcohol 102 % of control

O=C(O)CSC(=O)Nc1ccc(N=Nc2ccccc2)cc1
inactive: [1] 102 % of control | [2] 91 % of control

C1=C[N-]c2c3c(ccc2=C1)=CC=C[N-]3.O=S(=O)(O)O.[Zn+2]
inactive: dose: 3.12 mg/kg/injection, schedule: Q04DX002 (ip), vehicle: Klucel (hydroxypropylcellulose) (HPC) 108 % of control | dose: 6.25 mg/kg/injection, schedule: Q04DX002 (ip), vehicle: Klucel (hydroxypropylcellulose) (HPC) 100 % of control | dose: 12.5 mg/kg/injection, schedule: Q04DX002 (ip), vehicle: Klucel (hydroxypropylcellulose) (HPC) 109 % of control | dose: 25.0 mg/kg/injection, schedule: Q04DX002 (ip), vehicle: Klucel (hydroxypropylcellulose) (HPC) 111 % of control

CC1C2c3ccccc3C(c3ccccc32)C1C(=O)O (stereo unspecified)
inactive: [1] 98 % of control | [2] 100 % of control | [3] 107 % of control

C=CC(OC(C)=O)OC(C)=O
inactive: dose: 8.0 mg/kg/injection, schedule: Q01DX009 (ip), vehicle: saline 109 % of control | dose: 12.0 mg/kg/injection, schedule: Q01DX009 (ip), vehicle: saline 118 % of control | dose: 18.0 mg/kg/injection, schedule: Q01DX009 (ip), vehicle: saline 109 % of control

Cc1sc2c(c1C)c(=O)[nH]c1c(C#N)c(-c3ccc(Cl)cc3)cn12
inactive: dose: 60.0 mg/kg/injection, schedule: Q01DX005 (ip), vehicle: saline with Tween-80 86 % of control and 90 % of control | dose: 120.0 mg/kg/injection, schedule: Q01DX005 (ip), vehicle: saline with Tween-80 89 % of control | dose: 240.0 mg/kg/injection, schedule: Q01DX005 (ip), vehicle: saline with Tween-80 94 % of control

CCOC(=O)N1CCC23C=C(OC)C(=O)C=C2C1CC1=C3C(=O)C(OC)=CC1=O (stereo unspecified)
inactive: dose: 100.0 mg/kg/injection, schedule: Q01DX001 (ip), vehicle: saline 101 % of control | dose: 200.0 mg/kg/injection, schedule: Q01DX001 (ip), vehicle: saline 97 % of control | dose: 400.0 mg/kg/injection, schedule: Q01DX001 (ip), vehicle: saline 105 % of control

O=C(O)C(=O)O.O=C([O-])C(=O)O.O=C([O-])C(=O)O.O=C([O-])C(=O)[O-].[K+].[U]
inactive: dose: 1.56 mg/kg/injection, schedule: Q01DX009 (ip), vehicle: saline 100 % of control | dose: 3.13 mg/kg/injection, schedule: Q01DX009 (ip), vehicle: saline 100 % of control

O=[N+]([O-])c1cccc(N/N=C\c2c(Cl)[nH]c3ccccc23)c1
inactive: dose: 12.5 mg/kg/injection, schedule: Q01DX001 (ip), vehicle: Klucel (hydroxypropylcellulose) (HPC) 102 % of control | dose: 25.0 mg/kg/injection, schedule: Q01DX001 (ip), vehicle: Klucel (hydroxypropylcellulose) (HPC) 93 % of control | dose: 50.0 mg/kg/injection, schedule: Q01DX001 (ip), vehicle: Klucel (hydroxypropylcellulose) (HPC) 89 % of control | [4] 86 % of control
